Measured values from patent US12421225B2, “Heteroaromatic amide derivative and medicament containing the same” (KAKEN PHARMACEUTICAL CO., LTD., priority 2018, dated 2025).

How the values were obtained:
human Nav1.7 = human Nav1.7 (Homo sapiens (Human), UniProt Q15858); assay: Human Nav1.7 inhibitory activity evaluation (automated patch clamp QPatch16X, HEK293A cells stably expressing human Nav1.7 and human Navβ1); type: cell-based
Summary of the method: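 IC50 calculated from the concentration-response of inward current evoked by the second −10 mV, 50 ms depolarisation, which follows a 15 s conditioning step at roughly 30-40% inactivation and a 100 ms −120 mV interval. Cells: HEK293A expressing human Nav1.7/Navβ1, automated patch clamp, room temperature, 0.1% DMSO final.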

human Nav1.5 = human Nav1.5 (Homo sapiens (Human), UniProt Q14524); assay: Human Nav1.5 inhibitory activity evaluation (automated patch clamp QPatch16X, HEK293 cells stably expressing human Nav1.5); type: cell-based
Summary of the method: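 IC50 derived from concentration-response of inward current at the 20th of 20 action-potential-mimicking pulses (holding −80 mV, leak corrected with −100 mV step). HEK293 cells stably expressing human Nav1.5, room temperature, extracellular pH 7.4, intracellular CsF-based pH 7.3, 0.1% DMSO.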

male ICR mice = assay: Effect on acute pain (capsaicin-induced pain-related behavior, hind paw); type: in vivo
Protocol: Test Example 3: Effect on Acute Pain
Six-week old male ICR mice were used for the test. Test compounds were orally administered at 1-10 mg/kg and the mice were habituated to a clear observation cage for 60 minutes. The mice were lightly restrained under no anesthesia and 20 μL of 80 μg/mL (0.8% ethanol-saline) capsaicin solution was injected subcutaneously into the plantar surface of rihgt hind paw of mice. The mice were returned to the observation cage and, from just after that, the duration of pain-related behavior (licking, shaking) occurring in the right hind limb was measured as the reaction time for 5 minutes.
The inhibition rate of the test compound was determined by the following calculation formula. Test compound inhibition rate (%)=100×[1−(response time of test compound administered group/response time of vehicle control group)]

[1] = HEK293A cells stably expressing human Nav1.7 and human Navβ1, automated patch clamp QPatch16X
[2] = HEK293 cells stably expressing human Nav1.5, automated patch clamp QPatch16X
[3] = human Nav1.7, automated patch clamp
[4] = human Nav1.5, automated patch clamp

human Nav1.5, sequence (Q14524 whole entry): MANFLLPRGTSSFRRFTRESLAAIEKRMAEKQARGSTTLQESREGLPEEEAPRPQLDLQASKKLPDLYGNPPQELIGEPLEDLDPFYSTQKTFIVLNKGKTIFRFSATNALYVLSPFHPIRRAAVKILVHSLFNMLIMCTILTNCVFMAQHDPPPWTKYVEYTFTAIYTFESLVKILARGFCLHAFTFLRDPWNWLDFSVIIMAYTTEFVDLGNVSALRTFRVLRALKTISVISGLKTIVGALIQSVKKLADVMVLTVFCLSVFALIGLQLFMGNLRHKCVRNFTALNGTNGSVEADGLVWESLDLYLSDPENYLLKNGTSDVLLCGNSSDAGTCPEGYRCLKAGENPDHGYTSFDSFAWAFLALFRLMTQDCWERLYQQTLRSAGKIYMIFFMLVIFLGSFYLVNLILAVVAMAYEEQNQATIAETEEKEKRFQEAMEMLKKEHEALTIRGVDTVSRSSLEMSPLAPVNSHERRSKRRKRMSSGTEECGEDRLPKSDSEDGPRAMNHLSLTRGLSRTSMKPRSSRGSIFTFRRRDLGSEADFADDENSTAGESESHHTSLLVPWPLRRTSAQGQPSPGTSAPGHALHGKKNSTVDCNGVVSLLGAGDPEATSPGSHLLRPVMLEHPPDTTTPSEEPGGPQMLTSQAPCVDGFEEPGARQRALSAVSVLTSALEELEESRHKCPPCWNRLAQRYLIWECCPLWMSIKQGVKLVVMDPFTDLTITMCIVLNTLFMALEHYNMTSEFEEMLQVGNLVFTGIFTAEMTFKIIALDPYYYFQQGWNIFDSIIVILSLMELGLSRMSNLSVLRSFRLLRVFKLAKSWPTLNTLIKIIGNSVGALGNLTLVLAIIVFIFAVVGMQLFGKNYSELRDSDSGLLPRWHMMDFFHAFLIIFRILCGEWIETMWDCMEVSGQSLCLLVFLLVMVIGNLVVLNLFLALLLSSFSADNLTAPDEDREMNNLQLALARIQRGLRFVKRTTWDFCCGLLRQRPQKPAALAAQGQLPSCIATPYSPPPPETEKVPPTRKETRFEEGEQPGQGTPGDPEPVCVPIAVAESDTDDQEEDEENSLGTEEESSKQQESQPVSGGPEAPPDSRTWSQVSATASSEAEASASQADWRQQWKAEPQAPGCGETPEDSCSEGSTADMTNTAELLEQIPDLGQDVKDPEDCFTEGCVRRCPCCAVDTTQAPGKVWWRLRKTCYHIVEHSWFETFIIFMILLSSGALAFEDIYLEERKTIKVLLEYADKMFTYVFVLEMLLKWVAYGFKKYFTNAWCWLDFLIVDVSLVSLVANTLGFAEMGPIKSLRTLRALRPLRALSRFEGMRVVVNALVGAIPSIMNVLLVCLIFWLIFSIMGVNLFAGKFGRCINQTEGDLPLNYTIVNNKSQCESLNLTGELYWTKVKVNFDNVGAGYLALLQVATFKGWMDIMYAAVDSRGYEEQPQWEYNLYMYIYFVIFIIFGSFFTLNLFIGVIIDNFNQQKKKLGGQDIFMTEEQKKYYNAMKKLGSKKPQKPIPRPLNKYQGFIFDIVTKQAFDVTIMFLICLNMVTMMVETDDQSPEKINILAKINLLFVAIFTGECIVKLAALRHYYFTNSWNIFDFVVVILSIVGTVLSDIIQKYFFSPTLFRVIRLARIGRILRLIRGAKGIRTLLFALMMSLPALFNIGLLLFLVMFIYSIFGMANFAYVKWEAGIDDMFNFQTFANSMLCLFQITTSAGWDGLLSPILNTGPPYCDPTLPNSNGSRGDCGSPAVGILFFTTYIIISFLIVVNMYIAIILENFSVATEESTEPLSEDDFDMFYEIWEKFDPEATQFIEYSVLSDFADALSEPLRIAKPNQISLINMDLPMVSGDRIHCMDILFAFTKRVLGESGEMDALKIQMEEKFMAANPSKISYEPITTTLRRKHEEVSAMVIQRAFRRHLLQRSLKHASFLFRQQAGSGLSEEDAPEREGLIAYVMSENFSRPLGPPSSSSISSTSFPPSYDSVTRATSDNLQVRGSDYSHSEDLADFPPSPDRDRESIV
human Nav1.7, sequence (Q15858 whole entry): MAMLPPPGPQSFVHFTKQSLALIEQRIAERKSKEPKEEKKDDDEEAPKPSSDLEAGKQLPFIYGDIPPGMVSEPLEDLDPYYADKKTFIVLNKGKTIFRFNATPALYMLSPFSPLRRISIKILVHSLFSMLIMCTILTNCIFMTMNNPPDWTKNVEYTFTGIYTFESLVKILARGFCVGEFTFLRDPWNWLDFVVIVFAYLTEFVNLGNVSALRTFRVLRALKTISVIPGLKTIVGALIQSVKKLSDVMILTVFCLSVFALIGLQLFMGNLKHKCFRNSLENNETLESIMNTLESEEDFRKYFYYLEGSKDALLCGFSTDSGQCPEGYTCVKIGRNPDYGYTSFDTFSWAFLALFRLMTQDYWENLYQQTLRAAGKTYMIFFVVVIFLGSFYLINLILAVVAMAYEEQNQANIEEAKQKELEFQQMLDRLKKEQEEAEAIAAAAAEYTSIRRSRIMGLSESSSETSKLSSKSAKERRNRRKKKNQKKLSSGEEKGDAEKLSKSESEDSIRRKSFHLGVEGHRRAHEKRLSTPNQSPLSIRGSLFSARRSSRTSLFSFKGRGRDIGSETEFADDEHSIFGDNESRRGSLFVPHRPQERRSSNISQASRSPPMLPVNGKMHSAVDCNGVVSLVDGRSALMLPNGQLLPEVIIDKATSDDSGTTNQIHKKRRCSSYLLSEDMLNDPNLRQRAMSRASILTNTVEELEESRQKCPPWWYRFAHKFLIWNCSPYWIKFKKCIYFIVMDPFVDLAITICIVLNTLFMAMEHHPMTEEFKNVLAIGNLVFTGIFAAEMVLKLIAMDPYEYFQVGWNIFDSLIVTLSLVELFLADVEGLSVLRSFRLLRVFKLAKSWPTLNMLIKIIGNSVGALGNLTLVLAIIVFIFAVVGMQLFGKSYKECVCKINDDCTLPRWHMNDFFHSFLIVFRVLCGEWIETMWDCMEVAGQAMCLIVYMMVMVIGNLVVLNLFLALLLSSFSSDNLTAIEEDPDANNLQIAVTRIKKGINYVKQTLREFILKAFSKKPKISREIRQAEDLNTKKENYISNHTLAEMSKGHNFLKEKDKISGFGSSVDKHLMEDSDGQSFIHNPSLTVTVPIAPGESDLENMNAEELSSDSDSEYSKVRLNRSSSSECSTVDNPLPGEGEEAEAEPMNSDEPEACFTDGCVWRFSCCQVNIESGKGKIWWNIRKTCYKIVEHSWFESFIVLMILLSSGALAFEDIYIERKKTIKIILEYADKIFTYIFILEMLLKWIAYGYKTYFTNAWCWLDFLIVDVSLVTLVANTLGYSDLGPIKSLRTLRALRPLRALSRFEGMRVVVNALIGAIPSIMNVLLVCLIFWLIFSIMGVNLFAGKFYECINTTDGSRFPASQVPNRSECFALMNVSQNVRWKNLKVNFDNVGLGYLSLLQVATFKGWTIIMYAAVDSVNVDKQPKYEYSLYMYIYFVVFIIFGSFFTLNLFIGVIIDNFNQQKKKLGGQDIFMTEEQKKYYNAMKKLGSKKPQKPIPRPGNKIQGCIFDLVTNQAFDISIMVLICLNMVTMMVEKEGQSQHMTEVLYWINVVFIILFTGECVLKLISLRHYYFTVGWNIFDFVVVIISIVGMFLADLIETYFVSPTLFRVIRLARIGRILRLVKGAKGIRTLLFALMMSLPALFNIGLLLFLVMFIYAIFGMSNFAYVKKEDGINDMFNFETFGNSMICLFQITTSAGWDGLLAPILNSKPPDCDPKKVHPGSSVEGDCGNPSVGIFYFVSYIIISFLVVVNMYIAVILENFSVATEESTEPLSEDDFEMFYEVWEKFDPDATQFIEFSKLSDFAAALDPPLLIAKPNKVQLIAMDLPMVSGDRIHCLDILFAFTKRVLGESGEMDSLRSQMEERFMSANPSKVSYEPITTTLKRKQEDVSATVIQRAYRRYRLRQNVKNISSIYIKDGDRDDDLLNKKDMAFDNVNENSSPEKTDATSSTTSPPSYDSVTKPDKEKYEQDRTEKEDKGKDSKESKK
human Nav1.7, sequence (Q07699 19-218 partner): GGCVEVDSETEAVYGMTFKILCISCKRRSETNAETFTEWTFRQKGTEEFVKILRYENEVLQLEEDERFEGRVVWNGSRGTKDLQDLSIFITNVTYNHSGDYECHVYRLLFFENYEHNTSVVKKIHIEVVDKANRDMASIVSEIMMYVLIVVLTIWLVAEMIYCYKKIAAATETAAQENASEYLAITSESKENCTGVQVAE

SMILES	IC50 (human Nav1.7; [1]) [nM]	IC50 (human Nav1.7; [3]) [nM]	IC50 (human Nav1.5; [2]) [nM]	Inhibition rate (%) (male ICR mice)	IC50 (human Nav1.5; [4]) [nM]
COc1ncc(-c2ccc3c(c2)C[C@@H](NC(=O)c2cc4n(n2)CC(CCOCC2CC2)O4)CO3)cn1 (single isomer, unassigned) [204 (isomer A)]	–	< 1000	–	A (Compounds with an inhibition rate of 30% or more are indicated by the letter “A”)	≥ 3000
N#Cc1ccc2c(c1)C[C@@H](NC(=O)c1cc3n(n1)CC(CCSCC(F)(F)F)O3)CO2 (single isomer, unassigned) [244 (isomer A)]	–	< 1000	–	B (compounds with an inhibition rate of 20% or more and less than 30% are indicated by the letter “B”)	1000 to 3000
O=C(N[C@H]1COc2ccc(C(F)F)cc2C1)c1cn2c(n1)CCC(OCC(F)(F)F)C2 (stereo partly drawn) [Example 40]	< 10000	–	≥ 3000	B (compounds with an inhibition rate of 20% or more and less than 30% are indicated by the letter “B”)	–
O=C(N[C@H]1COc2ccccc2C1)c1cn2c(n1)CNC(c1ccc(F)c(F)c1)C2 (stereo partly drawn) [Example 44]	< 10000	–	≥ 3000	A (Compounds with an inhibition rate of 30% or more are indicated by the letter “A”)	–
O=C(NCCc1cccc(C(F)(F)F)c1)c1cn2c(n1)CNC(c1ccccc1)C2 (stereo not drawn) [Example 48]	< 10000	–	≥ 3000	A (Compounds with an inhibition rate of 30% or more are indicated by the letter “A”)	–
O=C(c1cn2c(n1)CNC(c1ccccc1)C2)N1CCC(c2cccc(C(F)(F)F)c2)C1 (stereo not drawn) [Example 60]	< 10000	–	≥ 3000	B (compounds with an inhibition rate of 20% or more and less than 30% are indicated by the letter “B”)	–
O=C(c1cn2c(n1)CNC(c1ccccc1)C2)N1CCOC(c2cccc(C(F)(F)F)c2)C1 (stereo not drawn) [Example 61]	< 10000	–	≥ 3000	B (compounds with an inhibition rate of 20% or more and less than 30% are indicated by the letter “B”)	–
O=C(N[C@H]1COc2ccc(C(F)(F)F)cc2C1)c1nn2c(c1-c1ccccn1)COCC2 [Example 260, (R)-3-(pyridin-2-yl)-N-(6-(trifluoromethyl)chroman-3-yl)-6,7-dihydro-4H-pyrazolo[5,1-c][1,4]oxazine-2-carboxamide]	–	< 1000	–	A (Compounds with an inhibition rate of 30% or more are indicated by the letter “A”)	≥ 3000

Continued, in another order:

IC50 (human Nav1.7; [1]) [nM]	IC50 (human Nav1.7; [3]) [nM]	SMILES	IC50 (human Nav1.5; [2]) [nM]	Inhibition rate (%) (male ICR mice)	IC50 (human Nav1.5; [4]) [nM]
< 10000	–	N#Cc1ccc2c(c1)C[C@@H](NC(=O)c1cc3n(n1)CCC(COCC(F)(F)F)O3)CO2 (single isomer, unassigned) [115 (isomer A)]	≥ 3000	A (Compounds with an inhibition rate of 30% or more are indicated by the letter “A”)	–
< 1000	–	O=C(N[C@H]1COc2ccc(COCC(F)(F)F)cc2C1)c1cc2n(n1)CCC(COCC(F)(F)F)O2 (single isomer, unassigned) [129 (isomer A)]	≥ 3000	A (Compounds with an inhibition rate of 30% or more are indicated by the letter “A”)	–
< 1000	–	CCC1CCn2nc(C(=O)N[C@H]3COc4ccc(C#N)cc4C3)cc2O1 (single isomer, unassigned) [Example 92 (isomer A)]	≥ 3000	A (Compounds with an inhibition rate of 30% or more are indicated by the letter “A”)	–
< 10000	–	O=C(N[C@H]1COc2ccccc2C1)c1cn2c(n1)CCC(OCC(F)(F)F)C2 (stereo partly drawn) [Example 37, N—((R)-chroman-3-yl)-6-(2,2,2-trifluoroethoxy)-5,6,7,8-tetrahydroimidazo[1,2-a]pyridine-2-carboxamide]	≥ 3000	B (compounds with an inhibition rate of 20% or more and less than 30% are indicated by the letter “B”)	–
